Reference: article PMC11184554, “Nature-Inspired Gallinamides Are Potent Antischistosomal Agents: Inhibition of the Cathepsin B1 Protease Target and Binding Mode Analysis” (ACS Infectious Diseases, 2024)

Tests used:
[1] = system: recombinant SmCB1; assay: Kinetic inhibition assay with recombinant SmCB1 (k2nd); assay type: biochemical, S. mansoni; conditions: for SmCB1 inhibition k2nd: second-order rate constant (kinact/Ki), substrate Cbz–Phe–Arg–AMC, pH 5.5, 37 °C, mean ± SE; for decrease in inhibitory potency vs gallinamide A / decrease in inhibition potency vs 8: ratio of k2nd values; for decrease in inhibition potency vs 8: range over the compounds named
Protocol: Gallinamide A and a series of its 18 derivatives were evaluated in vitro as inhibitors of SmCB1 to explore the binding specificities of the subsites in the enzyme’s active site. The gallinamide A inhibitor scaffold can be defined by positions P4 through P1′ (Schechter and Berger nomenclature[37]), which were assigned according to the binding mode analysis (see the crystallographic section below). The substituents R4, R1, and R1′ introduced on the scaffold (Table 2) are numbered according to the respective positions P4, P1, and P1′. The compounds’ second-order rate constants (k2nd) were determined using a kinetic inhibition assay with recombinant SmCB1 and the substrate, Cbz–Phe–Arg–AMC.
Inhibition measurements were performed in duplicate in 96-well microplates (100 μL assay volume) at 37 °C. SmCB1 (40 pM) was added to a mixture of the fluorogenic substrate Cbz–Phe–Arg–AMC (25 μM) and an inhibitor (0–100 μM) in 0.1 M sodium acetate, pH 5.5, containing 2.5 mM dithiothreitol and 0.01% (w/v) BRIJ 35. Substrate hydrolysis was monitored in an Infinite M1000 microplate reader (Tecan) at excitation and emission wavelengths of 360 and 465 nm, respectively, for up to 150 min. An observed first-order rate constant, kobs, was calculated at each inhibitor concentration by fitting the progress curve to the equation P = vi/kobs(1 – exp(−kobst)) + d where P is the product formation, t is the reaction time, vi is the initial velocity, and d is the offset. […] The second-order rate constant, k2nd, (and SE value) was determined by fitting the linear equation kobs = (k2nd[I])/(1 + [S]/Km), where [S] is the substrate concentration, [I] is the inhibitor concentration, and KM is the Michaelis–Menten constant. The KM value determined for SmCB1 was 25 μM. […] To determine IC50 values, SmCB1 (40 pM) was preincubated with the inhibitor (0–100 μM) for 30 min under assay conditions as described above, followed by the addition of the fluorogenic substrate Cbz–Phe–Arg–AMC (20 μM). Substrate hydrolysis was monitored for 30 min in a microplate reader as described above. The IC50 values were determined by nonlinear regression using GraFit software (Erithacus Software).

[2] = system: S. mansoni newly transformed schistosomula (NTS); assay: Phenotypic screen with newly transformed schistosomula (NTS); assay type: cell-based
Protocol: The same 19 gallinamides were screened for bioactivity against S. mansoni newly transformed schistosomula (NTS), the postinvasive parasite stage that feeds on host blood.[40] In this primary assay, the NTS were exposed to 1 and 10 μM compounds for 3 days, and the resulting phenotypic responses were graded from 0 through 4, i.e., the least to the most severe (Table 2 and Table S1). […] The effects were more pronounced after 72 h, and when the higher, 10 μM, compound concentration was used (Table S1). […] Also, compared to gallinamide A and its analogs, 3 has an additional N-terminal N-acetamide modification that further reduces bioactivity (Table 2).
Phenotypic screens employed S. mansoni newly transformed schistosomula (NTS) and adults and were carried out as described previously.[18]−[20],[42] NTS were prepared by mechanically transforming infective larvae (cercariae).[40],[42] NTS (200–300 parasites) were incubated in flat-bottomed 96-well plates in 200 μL of Basch Medium 169 containing 5% (v/v) FBS, 100 U mL^–1 penicillin and 100 μg mL^–1 streptomycin (complete Basch medium)[75] at 5% CO2 and 37 °C.[76],[77] Inhibitors were added at final concentrations of 1 and 10 μM, and changes in phenotypes were observed under an inverted microscope every 24 h for up to 72 h.
A constrained nomenclature of “descriptors”[39],[42] was used to record the multiple and dynamic changes in movement, shape, and translucence that the schistosome parasite is capable of (Table S1 for NTS and Table S3 for adults). These descriptors were then converted into an ordinal “severity score” system ranging from 0 (no effect) to 4 (maximum effect), which allows for the relative comparison of compound effects.

[3] = Phe in R1′ changed from S to R configuration
[4] = 1 μM compound, 24 h, scale 0 (no effect) to 4 (most severe)
[5] = 1 μM compound, 48 h, scale 0 to 4
[6] = 1 μM compound, 72 h, scale 0 to 4
[7] = 10 µM compound, 24 h, scale 0 to 4
[8] = 10 µM compound, 48 h, scale 0 to 4
[9] = 10 µM compound, 72 h, scale 0 to 4
[10] = Phe in R1 changed from S to R configuration

CCC(C)C(C(=O)OC(CC(C)C)C(=O)NC(CC(C)C)C(=O)NC(C=CC(=O)N1C(=O)C=C(OC)C1Cc1ccccc1)Cc1ccccc1)N(C)C (stereo not drawn) [compound 7]
improvement of inhibition vs 14 [1, 3]: 17 fold
SmCB1 inhibition k2nd [1]: 942 ± 50 M^–1·s^–1
schistosomula severity score [2, 4]: 0
schistosomula phenotype descriptors ([2]; 1 µM compound, 48 h): Dark, R, S
schistosomula severity score [2, 5]: 3
schistosomula severity score [2, 6]: 4
schistosomula severity score [2, 7]: 1
schistosomula severity score [2, 8]: 4
schistosomula severity score [2, 9]: 4

CCC(C)C(C(=O)OC(CC(C)C)C(=O)NC(CC(C)C)C(=O)NC(C)CCC(=O)N1C(=O)C=C(OC)C1C)N(C)C (stereo not drawn) [compound 16]
decrease in k2nd ([1]; absence of a double bond in the acrylamide group): 2 orders of magnitude
SmCB1 inhibition k2nd [1]: 36.9 ± 0.3 M^–1·s^–1
schistosomula severity score [2, 4]: 0
schistosomula severity score [2, 5]: 0
schistosomula severity score [2, 6]: 0
schistosomula severity score [2, 7]: 0
schistosomula phenotype descriptors ([2]; 10 µM compound, 48 h): Dark, R
schistosomula severity score [2, 8]: 2
schistosomula phenotype descriptors ([2]; 10 µM compound, 72 h): Dark, R
schistosomula severity score [2, 9]: 2

CCC(C)C(C(=O)OC(CC(C)C)C(=O)NC(CC(C)C)C(=O)NC(C=CC(=O)N1C(=O)C=C(OC)C1Cc1ccccc1)Cc1ccccc1)N(C)C (stereo not drawn) [compound 15]
decrease in inhibition vs 7 [1, 10]: 23 fold
improvement of inhibition vs 18 [1, 3]: 2.6 fold
SmCB1 inhibition k2nd [1]: 41.6 ± 1.6 M^–1·s^–1
schistosomula severity score [2, 4]: 0
schistosomula severity score [2, 5]: 3
schistosomula phenotype descriptors ([2]; 10 µM compound, 24 h): Dark, R
schistosomula severity score [2, 7]: 2
schistosomula severity score [2, 8]: 4
schistosomula severity score [2, 9]: 4

C#CCCCCOC1=CC(=O)N(C(=O)C=CC(C)NC(=O)C(CC(C)C)NC(=O)C(CC(C)C)OC(=O)C(C(C)CC)N(C)C)C1C (stereo not drawn) [compound 5]
decrease in inhibitory potency vs gallinamide A [1]: 2.4 fold
SmCB1 inhibition k2nd [1]: 2792 ± 360 M^–1·s^–1
schistosomula severity score [2, 4]: 0
schistosomula severity score [2, 5]: 4
schistosomula severity score [2, 6]: 4
schistosomula severity score [2, 7]: 1
schistosomula severity score [2, 8]: 4
schistosomula severity score [2, 9]: 4

CCC(C)C(NC(C)=O)C(=O)NC(CC(C)C)C(=O)NC(CC(C)C)C(=O)NC(C)C=CC(=O)N1C(=O)C=C(OC)C1C (stereo not drawn) [compound 3]
decrease in inhibitory potency vs gallinamide A [1]: 2.3 fold
SmCB1 inhibition k2nd [1]: 2902 ± 172 M^–1·s^–1
schistosomula severity score [2, 4]: 0
schistosomula severity score [2, 5]: 0
schistosomula phenotype descriptors ([2]; 1 µM compound, 72 h): Dark, R
schistosomula severity score [2, 6]: 2
schistosomula severity score [2, 7]: 0
schistosomula phenotype descriptors ([2]; 10 µM compound, 48 h): Dark, R
schistosomula severity score [2, 8]: 2
schistosomula phenotype descriptors ([2]; 10 µM compound, 72 h): Dark, R
schistosomula severity score [2, 9]: 2

COC1=CC(=O)N(C(=O)/C=C/[C@H](Cc2ccccc2)NC(=O)[C@H](CC(C)C)NC(=O)[C@H](CC(C)C)OC(=O)[C@H](C(C)C)N(C)C)[C@H]1CC(C)C [compound 11]
SmCB1 inhibition k2nd [1]: 295 ± 17 M^–1·s^–1
schistosomula severity score [2, 4]: 1
schistosomula phenotype descriptors ([2]; 1 µM compound, 48 h): Dark, R, S
schistosomula severity score [2, 5]: 3
schistosomula severity score [2, 6]: 4
schistosomula severity score [2, 7]: 1
schistosomula severity score [2, 8]: 4
schistosomula severity score [2, 9]: 4

CCC(C)C(C(=O)NC(CC(C)C)C(=O)NC(CC(C)C)C(=O)NC(C)C=CC(=O)N1C(=O)C=C(OC)C1C)N(C)C (stereo not drawn) [compound 4]
decrease in inhibitory potency vs gallinamide A [1]: 2.3 fold
SmCB1 inhibition k2nd [1]: 2894 ± 113 M^–1·s^–1
schistosomula severity score [2, 4]: 0
schistosomula severity score [2, 5]: 0
schistosomula severity score [2, 6]: 4
schistosomula severity score [2, 7]: 1
schistosomula severity score [2, 8]: 4
schistosomula severity score [2, 9]: 4

COC1=CC(=O)N(C(=O)/C=C/[C@H](C)NC(=O)[C@H](CC(C)C)NC(=O)[C@H](CC(C)C)OC(=O)[C@H](C(C)C)N(C)C)[C@H]1C [compound 2]
decrease in inhibitory potency vs gallinamide A [1]: 2 fold
SmCB1 inhibition k2nd [1]: 3334 ± 559 M^–1·s^–1
schistosomula severity score [2, 4]: 0
schistosomula severity score [2, 5]: 1
schistosomula severity score [2, 6]: 4
schistosomula severity score [2, 7]: 4
schistosomula severity score [2, 8]: 4
schistosomula severity score [2, 9]: 4

COC1=CC(=O)N(C(=O)/C=C/[C@H](Cc2ccccc2)NC(=O)[C@H](CC(C)C)NC(=O)[C@H](CC(C)C)OC(=O)[C@H](Cc2ccccc2)N(C)C)[C@@H]1Cc1ccccc1 [compound 13]
improvement of inhibition vs 17 [1, 3]: 6 fold
SmCB1 inhibition k2nd [1]: 109 ± 2 M^–1·s^–1
schistosomula severity score [2, 4]: 0
schistosomula severity score [2, 5]: 2
schistosomula severity score [2, 6]: 4
schistosomula phenotype descriptors ([2]; 10 µM compound, 24 h): Dark, R
schistosomula severity score [2, 7]: 2
schistosomula severity score [2, 8]: 4
schistosomula severity score [2, 9]: 4

CCC(C)C(C(=O)OC(CC(C)C)C(=O)NC(CC(C)C)C(=O)NC(C=CC(=O)N1C(=O)C=C(OC)C1C)Cc1ccccc1)N(C)C (stereo not drawn) [compound 8]
decrease in inhibitory potency vs gallinamide A [1]: 7.5 fold
SmCB1 inhibition k2nd [1]: 887 ± 46 M^–1·s^–1
schistosomula severity score [2, 4]: 1
schistosomula severity score [2, 5]: 4
schistosomula severity score [2, 6]: 4
schistosomula phenotype descriptors ([2]; 10 µM compound, 24 h): Dark, R, S
schistosomula severity score [2, 7]: 3
schistosomula severity score [2, 8]: 4
schistosomula severity score [2, 9]: 4

COC1=CC(=O)N(C(=O)/C=C/[C@H](Cc2ccccc2)NC(=O)[C@H](CC(C)C)NC(=O)[C@H](CC(C)C)OC(=O)[C@H](Cc2ccccc2)N(C)C)[C@H]1C [compound 12]
decrease in inhibition potency vs 8 [1]: 4.2–49 fold
SmCB1 inhibition k2nd [1]: 212 ± 30 M^–1·s^–1
schistosomula severity score [2, 4]: 1
schistosomula phenotype descriptors ([2]; 1 µM compound, 48 h): Dark, R
schistosomula severity score [2, 5]: 2
schistosomula severity score [2, 6]: 4
schistosomula phenotype descriptors ([2]; 10 µM compound, 24 h): Dark, R, S
schistosomula severity score [2, 7]: 3
schistosomula severity score [2, 8]: 4
schistosomula severity score [2, 9]: 4

CCC(C)C(C(=O)OC(CC(C)C)C(=O)NC(CC(C)C)C(=O)NC(C=CC(=O)N1C(=O)C=C(OC)C1CC(C)C)Cc1ccccc1)N(C)C (stereo not drawn) [compound 10]
SmCB1 inhibition k2nd [1]: 537 ± 48 M^–1·s^–1
schistosomula severity score [2, 4]: 0
schistosomula phenotype descriptors ([2]; 1 µM compound, 48 h): Dark, R
schistosomula severity score [2, 5]: 2
schistosomula severity score [2, 6]: 4
schistosomula severity score [2, 7]: 0
schistosomula severity score [2, 8]: 4
schistosomula severity score [2, 9]: 4

CCC(C)C(C(=O)OC(CC(C)C)C(=O)NC(CC(C)C)C(=O)NC(C=CC(=O)N1C(=O)C=C(OC)C1Cc1ccccc1)Cc1ccccc1)N(C)C (stereo not drawn) [compound 18]
decrease in inhibition vs 14 [1, 10]: 3.4 fold
SmCB1 inhibition k2nd [1]: 16.0 ± 0.2 M^–1·s^–1
schistosomula severity score [2, 4]: 0
schistosomula severity score [2, 5]: 0
schistosomula severity score [2, 6]: 0
schistosomula severity score [2, 7]: 1
schistosomula severity score [2, 8]: 4
schistosomula severity score [2, 9]: 4

COC1=CC(=O)N(C(=O)/C=C/[C@H](Cc2ccccc2)NC(=O)[C@H](CC(C)C)NC(=O)[C@H](CC(C)C)OC(=O)[C@H](Cc2ccccc2)N(C)C)[C@H]1Cc1ccccc1 [compound 17]
decrease in inhibition potency vs 8 [1]: 4.2–49 fold
SmCB1 inhibition k2nd [1]: 18.2 ± 0.2 M^–1·s^–1
schistosomula severity score [2, 4]: 0
schistosomula severity score [2, 5]: 0
schistosomula severity score [2, 6]: 4
schistosomula severity score [2, 7]: 1
schistosomula severity score [2, 8]: 4
schistosomula severity score [2, 9]: 4
